Source: patent US20160368895A1, “PULMONARY HYPERTENSION TREATING AGENT” (THE UNIVERSITY OF TOKYO, priority 2013, published 2016)

Biological target: T1, human PGI2 receptors (hIP) (Homo sapiens, UniProt P43119)
T1 construct: expressed in transfected cells; host or cells: CHO-K1
Experiment: Method C: effect on epoprostenol-cAMP production curve in CHO/hIP cells (left shift value)
Type: cell-based
Details: Table 4, concentration of test compound that halves the EC50 of epoprostenol
Experimental: The effect of a test compound on the cAMP production curve with respect to the IP agonist epoprostenol (manufactured by GlaxoSmithKline) was investigated using CHO-K1 cells (CHO/hIP cells) in which human PGI2 receptors (hIP) are stably expressed.
An amount of 5 μL of a mixture (diluted in F-12 culture medium (manufactured by GIBCO) including 0.1% BSA) of epoprostenol dissolved in DMSO and a test compound dissolved in DMSO was dispensed in advance into a 384-well black microplate, and 5 μL of CHO/hIP cells suspended at a concentration of 1.4×10^6 cells/mL in F-12 culture medium including 0.1% BSA were added to the microplate. After 40 minutes of incubation at room temperature, the amount of cAMP was measured using a cAMP assay kit (cAMP HiRange, manufactured by Cisbio Bioassays). Specifically, 5 μL of a cAMP-d2 solution (including a cell lysate) from the kit were added and the reaction was stopped, then 5 μL of a fluorescence-labeled cAMP antibody solution from the kit were added and incubation was performed for 1 hour at room temperature, after which fluorescence was measured using a PHERAstar plate reader (manufactured by BMG) in HTRF (registered trademark) mode. The amount of cAMP in each well was calculated from a cAMP calibration curve obtained using a standard sample, and an epoprostenol-cAMP production curve for the presence of various concentrations of the test compound was created.

T1 sequence (P43119 whole entry): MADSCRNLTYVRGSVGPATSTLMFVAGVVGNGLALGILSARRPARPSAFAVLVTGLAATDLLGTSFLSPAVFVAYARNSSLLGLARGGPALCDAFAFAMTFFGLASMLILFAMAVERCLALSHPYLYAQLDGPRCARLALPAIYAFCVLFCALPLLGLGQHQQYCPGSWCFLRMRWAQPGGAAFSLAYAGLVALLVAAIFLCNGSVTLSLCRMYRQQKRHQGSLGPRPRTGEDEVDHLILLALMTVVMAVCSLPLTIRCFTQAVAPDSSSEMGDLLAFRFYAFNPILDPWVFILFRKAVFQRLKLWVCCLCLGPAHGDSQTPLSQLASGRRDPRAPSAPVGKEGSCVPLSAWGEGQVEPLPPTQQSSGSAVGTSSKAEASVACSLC

left shift value [µM] | SMILES
4.3 | CCCOc1ccccc1C(c1nnnn1C(C)(C)C)N1CCc2ccccc2C1 (stereo not shown) [Example 52]
7.2 | CC(C)(C)n1nnnc1C(c1ccccc1Cl)N1CCc2ccccc2C1 (stereo not shown) [Example 53]
35 | Cc1ccccc1C(c1nnnn1C(C)(C)C)N1CCc2ccccc2C1 (stereo not shown) [Example 55]

Same assay, conditions: Table 5, concentration of test compound that halves the EC50 of epoprostenol

left shift value [µM] | SMILES
16.1 | CC(C)(C)n1nnnc1C(c1ccccc1)N1CCc2sccc2C1 (stereo not shown) [Example 59, 5-((1-(tert-butyl)-1H-tetrazol-5-yl)(phenyl)methyl)-4,5,6,7-tetrahydrothieno[3,2-c]pyridine]
10.5 | COc1ccccc1C(c1nnnn1C(C)(C)C)N1CCc2sccc2C1 (stereo not shown) [Example 60, 5-((1-(tert-butyl)-1H-tetrazol-5-yl)(2-methoxyphenyl)methyl)-4,5,6,7-tetrahydrothieno[3,2-c]pyridine]
12.2 | CC(C)(C)n1nnnc1C(c1cccs1)N1CCc2sccc2C1 (stereo not shown) [Example 62, 5-((1-(tert-butyl)-1H-tetrazol-5-yl)(thiophen-2-yl)methyl)-4,5,6,7-tetrahydrothieno[3,2-c]pyridine]

Biological target: T1, human PGI2 receptors (hIP)
Experiment: Method A: positive allosteric modulator activity, cAMP in CHO/hIP cells with 100 pM iloprost
Type: cell-based
Details: cAMP relative to 100 pM iloprost alone, test compound 5 uM
Experimental: The positive allosteric modulator activity of a test compound was measured as a change in the amount of intracellular cyclic AMP (cAMP) in the presence of 100 pM of the IP agonist iloprost (manufactured by CAYMAN CHEMICAL), using CHO-K1 cells (CHO/hIP cells) in which human PGI2 receptors (hIP) are stably expressed.
An amount of 5 μL of a mixture (diluted in F-12 culture medium (manufactured by GIBCO) including 0.1% BSA) of iloprost dissolved in DMSO and a test compound dissolved in DMSO was dispensed in advance into a 384-well black microplate, and 5 μL of CHO/hIP cells suspended at a concentration of 1.6×10^6 cells/mL in F-12 culture medium including 0.1% BSA were added to the microplate. After 40 minutes of incubation at room temperature, the amount of cAMP was measured using a cAMP assay kit (cAMP HiRange, manufactured by Cisbio Bioassays). Specifically, 5 μL of a cAMP-d2 solution (including a cell lysate) from the kit were added and the reaction was stopped, then 5 μL of a fluorescence-labeled cAMP antibody solution from the kit was added and incubation was performed for 1 hour at room temperature, after which fluorescence was measured using a PHERAstar plate reader (manufactured by BMG) in HTRF (registered trademark) mode. The amount of cAMP in each well was calculated from a cAMP calibration curve obtained using a standard sample, and the activity of each test compound is noted below as a ratio T/C (%) based on the amount of cAMP for 100 pM of isoprost alone. All of the compounds included in this table were purchased from Asinex Corporation.

SMILES | T/C % [%]
COc1ccc(C(c2nnnn2Cc2ccccc2)N2CCc3ccccc3C2)cc1OC (stereo not shown) | 90
Cc1ccc(S(=O)(=O)Cn2nnnc2C(c2ccc(O)cc2)N2CCc3ccccc3C2)cc1 (stereo not shown) | 104
CC(C)(C)n1nnnc1C(c1ccccc1)N1CCc2ccccc2C1 (stereo not shown) [drawing 104] | 143

Other lines, results leading:

T/C % [%] | SMILES
113 | CC(C)(C)n1nnnc1C(c1ccc(Cl)cc1)N1CCc2ccccc2C1 (stereo not shown) [drawing 118]
112 | Cc1ccc(C(c2nnnn2C(C)(C)C)N2CCc3ccccc3C2)cc1 (stereo not shown) [drawing 143]

Same assay, conditions: cAMP relative to 100 pM iloprost alone, test compound 10 uM

SMILES | T/C % [%]
CCC(C)(C)n1nnnc1C(c1ccccc1)N1CCc2ccccc2C1 (stereo not shown) | 202
COc1ccc(OC)c(C(c2nnnn2C(C)(C)C)N2CCc3ccccc3C2)c1 (stereo not shown) | 100
COc1ccc(C(c2nnnn2CS(=O)(=O)c2ccc(C)cc2)N2CCc3ccccc3C2)cc1 (stereo not shown) | 101
COc1ccc(C(c2nnnn2C(C)(C)C)N2CCc3ccccc3C2)cc1OC (stereo not shown) | 103
CCC(C)(C)n1nnnc1C(c1ccc(OC)c(OC)c1)N1CCc2ccccc2C1 (stereo not shown) | 103
COc1ccc(C(c2nnnn2CCc2ccccc2)N2CCc3ccccc3C2)c(OC)c1 (stereo not shown) | 106
c1ccc(Cn2nnnc2C(c2ccccc2)N2CCc3ccccc3C2)cc1 (stereo not shown) | 112
COc1ccc(C(c2nnnn2CCc2ccccc2)N2CCc3ccccc3C2)cc1OC (stereo not shown) | 106
COc1ccc(C(c2nnnn2Cc2ccccc2)N2CCc3ccccc3C2)c(OC)c1 (stereo not shown) | 103
COCCn1nnnc1C(c1ccc(O)cc1OC)N1CCc2ccccc2C1 (stereo not shown) | 97
COc1ccc(OC)c(C(c2nnnn2Cc2ccccc2)N2CCc3ccccc3C2)c1 (stereo not shown) | 90
COc1ccc(OC)c(C(c2nnnn2Cc2ccc(C)cc2)N2CCc3ccccc3C2)c1 (stereo not shown) | 91
COCCn1nnnc1C(c1cc(OC)ccc1OC)N1CCc2ccccc2C1 (stereo not shown) | 90
Oc1ccc(C(c2nnnn2Cc2ccc(F)cc2)N2CCc3ccccc3C2)cc1 (stereo not shown) | 113
COc1cc(C(c2nnnn2Cc2ccccc2)N2CCc3ccccc3C2)ccc1O (stereo not shown) | 94
COc1cc(C(c2nnnn2Cc2ccc(F)cc2)N2CCc3ccccc3C2)ccc1O (stereo not shown) | 91

SMILES | T/C % [%]
COc1cc(C(c2nnnn2CCc2ccccc2)N2CCc3ccccc3C2)ccc1O (stereo not shown) | 91
COc1ccc(Cn2nnnc2C(c2ccccc2)N2CCc3ccccc3C2)cc1 (stereo not shown) | 104
Fc1ccc(C(c2nnnn2CCc2ccccc2)N2CCc3ccccc3C2)cc1 (stereo not shown) | 103
COc1ccc(C(c2nnnn2Cc2ccccc2)N2CCc3ccccc3C2)cc1 (stereo not shown) | 110
COc1ccc(Cn2nnnc2C(c2ccc(OC)cc2)N2CCc3ccccc3C2)cc1 (stereo not shown) | 105
COc1ccc(C(c2nnnn2Cc2ccc(F)cc2)N2CCc3ccccc3C2)cc1OC (stereo not shown) | 96
COc1ccc(OC)c(C(c2nnnn2CCc2ccccc2)N2CCc3ccccc3C2)c1 (stereo not shown) | 78
CCC(C)(C)n1nnnc1C(c1ccc(O)c(OC)c1)N1CCc2ccccc2C1 (stereo not shown) | 122
COc1ccc(C(c2nnnn2CCc2ccccc2)N2CCc3ccccc3C2)cc1 (stereo not shown) | 114
COCCn1nnnc1C(c1ccc(OC)c(OC)c1)N1CCc2ccccc2C1 (stereo not shown) | 98
CCC(C)(C)n1nnnc1C(c1cc(OC)ccc1O)N1CCc2ccccc2C1 (stereo not shown) | 100
CCC(C)(C)n1nnnc1C(c1ccccc1OC)N1CCc2ccccc2C1 (stereo not shown) | 215
COCCn1nnnc1C(c1ccccc1OC)N1CCc2ccccc2C1 (stereo not shown) | 107
Cc1ccc(S(=O)(=O)Cn2nnnc2C(c2ccc(C(F)(F)F)cc2)N2CCc3ccccc3C2)cc1 (stereo not shown) | 102
c1ccc(CCn2nnnc2C(c2ccccc2)N2CCc3ccccc3C2)cc1 (stereo not shown) [drawing 106] | 128
c1ccc(CCn2nnnc2C(c2ccccc2)N2CCc3ccccc3C2)cc1 (stereo not shown) [drawing 142] | 111

Continued, values first:

T/C % [%] | SMILES
117 | Cc1ccc(Cn2nnnc2C(c2ccccc2)N2CCc3ccccc3C2)cc1 (stereo not shown)
103 | CN(C)c1ccc(C(c2nnnn2C2CCCC2)N2CCc3ccccc3C2)cc1 (stereo not shown)
100 | Cc1ccc(C(c2nnnn2C2CCCCC2)N2CCc3ccccc3C2)cc1 (stereo not shown)
110 | Clc1ccc(C(c2nnnn2C2CCCC2)N2CCc3ccccc3C2)cc1 (stereo not shown)
104 | Fc1ccc(C(c2nnnn2C2CCCCC2)N2CCc3ccccc3C2)cc1 (stereo not shown)
148 | CCC(C)(C)n1nnnc1C(c1ccc(Cl)cc1)N1CCc2ccccc2C1 (stereo not shown)
155 | CCC(C)(C)n1nnnc1C(c1ccc(F)cc1)N1CCc2ccccc2C1 (stereo not shown)
82 | COc1ccc(OC)c(C(c2nnnn2C2CCCCC2)N2CCc3ccccc3C2)c1 (stereo not shown)
109 | Cc1ccc(Cn2nnnc2C(c2ccc(Cl)cc2)N2CCc3ccccc3C2)cc1 (stereo not shown)
108 | Cc1ccc(C(c2nnnn2CCc2ccccc2)N2CCc3ccccc3C2)cc1 (stereo not shown)
104 | Oc1ccc(C(c2nnnn2C2CCCCC2)N2CCc3ccccc3C2)cc1 (stereo not shown)
97 | COc1cc(C(c2nnnn2C2CCCCC2)N2CCc3ccccc3C2)ccc1O (stereo not shown)
105 | Cc1ccc(C(c2nnnn2C2CCCC2)N2CCc3ccccc3C2)cc1 (stereo not shown)
117 | Cc1ccc(C(c2nnnn2Cc2ccc(F)cc2)N2CCc3ccccc3C2)cc1 (stereo not shown)
106 | Cc1ccc(Cn2nnnc2C(c2ccc(F)cc2)N2CCc3ccccc3C2)cc1 (stereo not shown)
87 | COc1ccc(C(c2nnnn2C2CCCCC2)N2CCc3ccccc3C2)cc1OC (stereo not shown)
93 | COc1ccc(C(c2nnnn2C2CCCC2)N2CCc3ccccc3C2)cc1OC (stereo not shown)
111 | COc1ccc(C(c2nnnn2C2CCCCC2)N2CCc3ccccc3C2)cc1 (stereo not shown)
108 | Fc1ccc(C(c2nnnn2C2CCCC2)N2CCc3ccccc3C2)cc1 (stereo not shown)
105 | Oc1ccc(C(c2nnnn2C2CCCC2)N2CCc3ccccc3C2)cc1 (stereo not shown)
113 | COc1ccc(C(c2nnnn2C2CCCCC2)N2CCc3ccccc3C2)c(OC)c1 (stereo not shown)
92 | COc1ccc(OC)c(C(c2nnnn2C2CCCC2)N2CCc3ccccc3C2)c1 (stereo not shown)
96 | COCCn1nnnc1C(c1ccc(F)cc1)N1CCc2ccccc2C1 (stereo not shown)
112 | COc1ccc(C(c2nnnn2Cc2ccc(C)cc2)N2CCc3ccccc3C2)cc1 (stereo not shown)
93 | Cc1ccc(S(=O)(=O)Cn2nnnc2C(c2ccc(F)cc2)N2CCc3ccccc3C2)cc1 (stereo not shown)
112 | c1ccc(C(c2nnnn2C2CCCCC2)N2CCc3ccccc3C2)cc1 (stereo not shown) [drawing 120]
112 | Cc1ccc(C(c2nnnn2Cc2ccccc2)N2CCc3ccccc3C2)cc1 (stereo not shown) [drawing 121]
98 | c1ccc(C(c2nnnn2C2CCCCC2)N2CCc3ccccc3C2)cc1 (stereo not shown) [drawing 138]
102 | Cc1ccc(C(c2nnnn2Cc2ccccc2)N2CCc3ccccc3C2)cc1 (stereo not shown) [drawing 140]
103 | Cc1ccc(C(c2nnnn2Cc2ccccc2)N2CCc3ccccc3C2)cc1 (stereo not shown) [drawing 151]
